Measured values reported in patent US10118935B2, “Melampomagnolide B dimers” (priority 2014, dated 2018).

Tests used:
[1] = test system: CAKI-1; test: NCI 60 cell line five dose, Renal Cancer
[2] = test system: A498; test: NCI 60 cell line five dose, Renal Cancer
[3] = test system: PC-3; test: NCI 60 cell line five dose, Prostate Cancer
[4] = test system: SNB-75; test: NCI 60 cell line five dose, CNS Cancer
[5] = test system: CCRF-CEM; test: NCI 60 cell line five dose, Leukemia
[6] = test system: RPMI-8226; test: NCI 60 cell line five dose, Leukemia
[7] = test system: NCI-H460; test: NCI 60 cell line five dose, Non-Small Cell Lung Cancer
[8] = test system: HCT-116; test: NCI 60 cell line five dose, Colon Cancer
[9] = test system: SF-539; test: NCI 60 cell line five dose, CNS Cancer
[10] = test system: UACC-257; test: NCI 60 cell line five dose, Melanoma
[11] = test system: OVCAR-5; test: NCI 60 cell line five dose, Ovarian Cancer

**Q.** How did the GI50 [1] turn out when `C=C1C(=O)O[C@H]2[C@H]1CC/C(COC(=O)NCCCCCNC(=O)OC/C1=C/CC[C@@]3(C)O[C@H]3[C@H]3OC(=O)C(=C)[C@@H]3CC1)=C\CC[C@@]1(C)O[C@@H]21` [JVM 2-76, bis(((1aR,7aS,10aS,10bS,E)-1a-Methyl-8-methylene-9-oxo-1a,2,3,6,7,7a,8,9,10a,10b-decahydrooxireno[2′,3′:9,10]cyclodeca[1,2-b]furan-5-yl)methyl)pentane-1,5-diyldicarbamate] was run?
**A.** Its GI50 is 16.1 µM.

**Q.** What about the TGI [1] of the same compound?
**A.** Its TGI is 33.1 µM.

**Q.** What about the CC50 ([1]; read-out: LC50) of the same compound?
**A.** Its CC50 is 68.1 µM.

**Q.** What about the GI50 [2] of the same compound?
**A.** Its GI50 is 6.24 µM.

**Q.** And the TGI [2]?
**A.** The TGI was 19.4 µM.

**Q.** And the CC50 ([2]; read-out: LC50)?
**A.** Its CC50 is 47.5 µM.

**Q.** And the GI50 [3]?
**A.** The GI50 was 3.79 µM.

**Q.** And the TGI [3]?
**A.** Its TGI is 15.6 µM.

**Q.** And the CC50 ([3]; read-out: LC50)?
**A.** The CC50 was 49.4 µM.

**Q.** What about the GI50 [4] of the same compound?
**A.** Its GI50 is 2.2 µM.

**Q.** What about the TGI [4] of the same compound?
**A.** The TGI was 11.4 µM.

**Q.** And the CC50 ([4]; read-out: LC50)?
**A.** The CC50 was 33.8 µM.

**Q.** What about the GI50 [5] of the same compound?
**A.** The GI50 was 0.28 µM.

**Q.** And the TGI [5]?
**A.** The TGI was 0.96 µM.

**Q.** And the CC50 ([5]; read-out: LC50)?
**A.** The CC50 was greater than 100 µM.

**Q.** And the GI50 [6]?
**A.** Its GI50 is 0.78 µM.

**Q.** What about the TGI [6] of the same compound?
**A.** Its TGI is 4.16 µM.

**Q.** And the CC50 ([6]; read-out: LC50)?
**A.** Its CC50 is greater than 100 µM.

**Q.** And the GI50 [7]?
**A.** The GI50 was 4.34 µM.

**Q.** And the TGI [7]?
**A.** Its TGI is 16.2 µM.

**Q.** What about the CC50 ([7]; read-out: LC50) of the same compound?
**A.** The CC50 was 50.7 µM.

**Q.** And the GI50 [8]?
**A.** The GI50 was 0.54 µM.

**Q.** And the TGI [8]?
**A.** The TGI was 1.86 µM.

**Q.** What about the CC50 ([8]; read-out: LC50) of the same compound?
**A.** The CC50 was 4.56 µM.

**Q.** What about the GI50 [9] of the same compound?
**A.** Its GI50 is 1.92 µM.

**Q.** And the TGI [9]?
**A.** The TGI was 4.56 µM.

**Q.** And the CC50 ([9]; read-out: LC50)?
**A.** The CC50 was 12.7 µM.

**Q.** And the GI50 [10]?
**A.** Its GI50 is 2.07 µM.

**Q.** What about the TGI [10] of the same compound?
**A.** The TGI was 7.46 µM.

**Q.** And the CC50 ([10]; read-out: LC50)?
**A.** The CC50 was 42.4 µM.

**Q.** What about the GI50 [11] of the same compound?
**A.** Its GI50 is 1.67 µM.

**Q.** And the TGI [11]?
**A.** The TGI was 3.53 µM.

**Q.** And the CC50 ([11]; read-out: LC50)?
**A.** The CC50 was 7.47 µM.
